From US9427415B2, “Methods and compositions for modifying sensorial perception” (The Procter & Gamble Company, priority 2014, dated 2016)
Read-outs that look alike come from different tables or passages of the source.

Tests used:
human TRPV1 = target: T1, human TRPV1 (Homo sapiens, UniProt Q8NER1, M315I/T336M); experiment: Intracellular calcium (Fluo-4, FLIPR) activation of TRPV1 cells by GRAS compounds; format: cell-based;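 further: TRPV1-expressing cells, FLIPR fluorescence at 488/514 nm with baseline subtracted, sampled every 2 s for 10 min after adding compound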
T1 construct: expressed in transfected cells; pcDNA3 control cells

TRPA1V1 = experiment: Intracellular calcium (Fluo-4, FLIPR) activation of TRPA1V1 cells (co-expressing TRPA1 and TRPV1) by GRAS compounds; format: cell-based, human;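 further: HEK293 cells co-expressing TRPA1 and TRPV1, fluorescence read at 488/514 nm after baseline subtraction, recorded every 2 s over 10 min, ionomycin 10 µM and buffer as controls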
human TRPA1 = target: T2, human TRPA1 (Homo sapiens, UniProt O75762, K186N/R3C/R58T); experiment: Intracellular calcium (Fluo-4, FLIPR) activation of TRPA1 cells by GRAS compounds; format: cell-based; settings: relative to AITC 30 μM;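 further: TRPA1-expressing cells, fluorescence read on a FLIPR Tetra (ex 488 nm, em 514 nm) every 2 s for 10 min after compound addition, baseline subtracted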
T2 construct: expressed in transfected cells; pcDNA3 control cells

[1] = Table 1(a), 1 mM, relative to capsaicin 350 nM, average of three plates, read-out: V1 activation, % of agonist value
[2] = Table 1(a), 1 mM, relative to AITC 30 μM, average of three plates
[3] = Table 1(a), 1 mM, average of three plates, read-out: A1 activation, % of agonist value
[4] = Table 1(b), 1 mM, relative to AITC 30 μM

T1 sequence (Q8NER1 whole entry M315I/T336M): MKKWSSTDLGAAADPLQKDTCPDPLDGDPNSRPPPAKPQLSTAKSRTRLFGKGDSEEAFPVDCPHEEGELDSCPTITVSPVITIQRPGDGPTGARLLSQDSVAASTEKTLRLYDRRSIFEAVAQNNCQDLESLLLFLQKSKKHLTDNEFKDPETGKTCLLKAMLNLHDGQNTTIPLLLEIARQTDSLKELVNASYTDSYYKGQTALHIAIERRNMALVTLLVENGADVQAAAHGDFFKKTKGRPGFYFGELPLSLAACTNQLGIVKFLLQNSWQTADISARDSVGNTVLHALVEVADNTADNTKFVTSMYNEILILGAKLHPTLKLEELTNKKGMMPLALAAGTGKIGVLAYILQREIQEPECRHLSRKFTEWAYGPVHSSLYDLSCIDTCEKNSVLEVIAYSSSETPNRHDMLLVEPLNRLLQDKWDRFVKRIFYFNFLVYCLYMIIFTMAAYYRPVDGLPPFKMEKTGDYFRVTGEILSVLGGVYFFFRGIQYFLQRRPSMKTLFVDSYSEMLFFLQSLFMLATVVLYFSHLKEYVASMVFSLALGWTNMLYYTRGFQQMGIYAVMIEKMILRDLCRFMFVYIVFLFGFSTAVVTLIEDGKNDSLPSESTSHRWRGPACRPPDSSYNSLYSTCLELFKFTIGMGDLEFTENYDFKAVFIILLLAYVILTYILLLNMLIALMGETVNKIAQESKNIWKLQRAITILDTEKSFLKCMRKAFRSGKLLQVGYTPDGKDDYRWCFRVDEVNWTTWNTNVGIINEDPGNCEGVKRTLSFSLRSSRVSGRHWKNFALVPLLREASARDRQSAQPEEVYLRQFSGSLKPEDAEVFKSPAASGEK
T2 sequence (O75762 whole entry R3C/R58T/K186N): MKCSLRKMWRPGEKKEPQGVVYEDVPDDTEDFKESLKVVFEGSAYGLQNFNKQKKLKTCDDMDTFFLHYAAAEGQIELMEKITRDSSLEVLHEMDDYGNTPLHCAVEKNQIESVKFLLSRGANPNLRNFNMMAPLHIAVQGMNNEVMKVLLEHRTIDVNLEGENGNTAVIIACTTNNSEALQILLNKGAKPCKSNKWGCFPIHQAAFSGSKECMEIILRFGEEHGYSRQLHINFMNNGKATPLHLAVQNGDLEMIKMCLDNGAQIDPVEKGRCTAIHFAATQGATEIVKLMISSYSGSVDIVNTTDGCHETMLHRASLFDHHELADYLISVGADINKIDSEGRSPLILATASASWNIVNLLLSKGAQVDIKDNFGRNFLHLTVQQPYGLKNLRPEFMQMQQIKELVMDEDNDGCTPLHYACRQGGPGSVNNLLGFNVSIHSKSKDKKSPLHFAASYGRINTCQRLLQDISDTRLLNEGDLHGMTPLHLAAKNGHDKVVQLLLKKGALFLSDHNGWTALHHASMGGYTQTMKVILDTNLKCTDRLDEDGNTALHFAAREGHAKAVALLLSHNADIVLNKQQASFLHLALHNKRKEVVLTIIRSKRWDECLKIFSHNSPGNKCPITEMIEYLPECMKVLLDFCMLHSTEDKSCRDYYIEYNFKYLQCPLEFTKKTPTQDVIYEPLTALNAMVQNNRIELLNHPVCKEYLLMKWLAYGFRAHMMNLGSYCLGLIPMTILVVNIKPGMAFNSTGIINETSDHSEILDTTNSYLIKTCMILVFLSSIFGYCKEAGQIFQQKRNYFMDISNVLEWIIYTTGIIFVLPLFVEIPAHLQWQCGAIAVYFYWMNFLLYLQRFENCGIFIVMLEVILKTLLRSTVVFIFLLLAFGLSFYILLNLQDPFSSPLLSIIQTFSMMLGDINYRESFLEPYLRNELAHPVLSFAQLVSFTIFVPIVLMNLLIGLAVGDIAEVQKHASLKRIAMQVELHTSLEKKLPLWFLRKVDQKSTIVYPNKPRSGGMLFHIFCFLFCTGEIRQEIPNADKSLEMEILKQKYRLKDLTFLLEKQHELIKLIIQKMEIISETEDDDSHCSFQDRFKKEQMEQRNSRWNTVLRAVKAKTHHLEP

Question: Which results are given for `CCCCCC/C=C/C=C/C=O` [Trans,trans-2,4-undecadien-1-al]?
Answer: activation at 100 µM (human TRPV1; Table 1(b), 100 μM (*), relative to capsaicin 350 nM, read-out: V1 activation, % of agonist value): 87.5%; A1V1 activation, % of agonist value (TRPA1V1; Table 1(b), 100 μM (*), relative to AITC 30 μM): 38.4%; A1V1 activation, % of agonist value (TRPA1V1; Table 1(c), 1 mM, relative to AITC 30 μM): 85.4%; activation at 100 µM (human TRPA1; Table 1(b), 100 μM (*), read-out: A1 activation, % of agonist value): 74%; activation at 1000 µM (human TRPA1; Table 1(c), 1 mM, read-out: A1 activation, % of agonist value): 86.4%

Question: Which results are given for `CCCCC/C=C/CO` [Trans-2-Octen-1-ol]?
Answer: activation at 1000 µM (human TRPV1; [1]): 26%; A1V1 activation, % of agonist value (TRPA1V1; [2]): 103.2%; activation at 1000 µM (human TRPA1; [3]): 118%

Question: For `COc1cc(C2OCC(C)O2)ccc1O` (stereo not drawn) [Vanillin propylene glycol acetal], which “V1 activation, % of agonist value” (human TRPV1; Table 1(b), 1 mM, relative to capsaicin 350 nM) is on record?
Answer: 57.97%

Question: And the “A1V1 activation, % of agonist value” (TRPA1V1; [4])?
Answer: 94.49%

Question: What about the “A1 activation, % of agonist value” (human TRPA1; Table 1(b), 1 mM) of the same compound?
Answer: 76.21%

Question: `CCOCc1ccc(O)c(OC)c1` [Vanillyl ethyl ether] was tested. Which activation at 1000 µM (human TRPV1; [1]) did it give?
Answer: 67.6%

Question: What about the “A1V1 activation, % of agonist value” (TRPA1V1; [2]) of the same compound?
Answer: 59.64%

Question: And the activation at 1000 µM (human TRPA1; [3])?
Answer: 38%

Question: How did the activation at 1000 µM (human TRPV1; Table 1(b), 1 mM, relative to capsaicin 350 nM, read-out: V1 activation, % of agonist value) turn out when `COc1cc(CCC(C)=O)ccc1O` [Vanillylacetone] was run?
Answer: 60%

Question: And the “A1V1 activation, % of agonist value” (TRPA1V1; [4])?
Answer: 37.75%

Question: And the activation at 1000 µM (human TRPA1; Table 1(b), 1 mM, read-out: A1 activation, % of agonist value)?
Answer: 22.3%

Question: For `C=CCc1cccc(OC)c1O` [o-Eugenol], which “V1 activation, % of agonist value” (human TRPV1; Table 1(a), 1 mM, relative to capsaicin 350 nM, average of three plates) is on record?
Answer: 64.5%

Question: And the “A1V1 activation, % of agonist value” (TRPA1V1; [2])?
Answer: 158.3%

Question: What about the “A1 activation, % of agonist value” (human TRPA1; Table 1(a), 1 mM, average of three plates) of the same compound?
Answer: 128.4%

Question: Which “V1 activation, % of agonist value” (human TRPV1; Table 1(i), 100 μM (*), relative to capsaicin 350 nM, […]) does the source give for Desoxycholic acid here?
Answer: 84.4%

Question: And the “TRPV1 activation selectivity, in words” value (human TRPV1; statement in description, see Table 1(i))?
Answer: TRPV1 activators which do not modulate TRPA1 or TRPA1V1

Question: And the “A1V1 activation, % of agonist value” (TRPA1V1; Table 1(i), 100 μM (*), relative to AITC 30 μM or capsaicin 350 nM depending on compound, […])?
Answer: 2.9%

Question: What about the “A1 activation, % of agonist value” (human TRPA1; Table 1(i), 100 μM (*), […]) of the same compound?
Answer: 3.2%
